Measured values taken from patent US5817651A, “3-arylcarbonyl-1-(C-attached-N-heteryl)-1H-indoles” (Sanofi, priority 1997, dated 1998).
Where two headings read alike, the source gives them in different places.

How the values were obtained:
[1] = test system: acetylcholine-induced abdominal constriction; assay: acetylcholine-induced abdominal constriction test (ACH); assay type: in vivo; parameters: key to ACH remark (Depr. = depressant): The abbreviations IA and Depr. represent, respectively, inactive and depressant; The abbreviations IA and Depr. represent, respectively, inactive and depressant; settings: mice; for ED50 / inhibition in vivo at 100 mg/kg: Mus musculus; for inhibition in vivo at 100 mg/kg: dose level 100, read-out: ACH percent inhibition at dose 100; for ACH remark (Depr. = depressant): remark beside the ED50
Method in brief: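 Compounds were given as gum tragacanth suspensions or as aqueous solutions dissolved with dilute methanesulfonic or lactic acid.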

bradykinin = assay: anti-bradykinin test (BDK); assay type: in vivo; parameters: key to BDK result (po): The abbreviations IA and Depr. represent, respectively, inactive and depressant; The abbreviations IA and Depr. represent, respectively, inactive and depressant
From the text: (§1) The test procedures used to determine the analgesic activities of the compounds have been described in detail in the prior art and are as follows: The acetylcholine-induced abdominal constriction test, which is a primary analgesic screening test designed to measure the ability of a test agent to suppress acetylcholine-induced abdominal constriction in mice, described by Collier et al., Brit. J. Pharmacol. Chemotherap. 32, 295 (1968); a modification of the anti-bradykinin test, which is also a primary analgesic screening procedure, described by Berkowitz et al., J. Pharmacol. Exptl. Therap. 177, 500-508 (1971), Blane et al., J. Pharm. Pharmacol. 19, 367-373 (1967), Botha et al., Eur. J. Pharmacol. 6, 312-321 (1969) and Deffenu et al., J. Pharm. Pharmacol. 18, 135 (1966); and the Randall-Selitto analgesic test described by Randall and Selitto, Arch. Int. Pharmacodyn., 111, 409-419 (1957).
(§2) Data in the developing adjuvant arthritis (AA) and plasma fibronectin (FN) assays are expressed as percent inhibition, i.e. inhibition of non-injected paw inflammation (NIP) and injected paw (RPV) and lowering of plasma fibronectin, the asterisks * and ** indicating statistical significance at the p<0.01 and p<0.05 levels, respectively. Compounds are considered active at p<0.05 level. Non-statistically significant results are recorded as "------ ". In the acetylcholine-induced abdominal constriction test, the test compounds were administered either as suspensions in gum tragacanth (GT) or as aqueous solutions prepared by addition of just sufficient dilute aqueous methanesulfonic acid (MS) or dilute aqueous lactic acid (LA) to dissolve the compound. The compounds are identified by the example number above where their preparations are described. All data in the anti-bradykinin, rat writhing and Randall-Selitto tests were obtained on oral administration.

[2] = test system: acetic acid-induced writhing; assay: acetic acid-induced writhing assay in the rat (RW); assay type: in vivo; settings: for ED50: Rattus norvegicus, po; for ED50 / RW ED50: oral administration; for RW percent inhibition at dose 30: dose level 30
Experimental: as §2

[3] = test system: mouse vasa deferentia preparation; assay: mouse vas deferens test (MVD); assay type: cell-based; settings: inhibition of contractions, in vitro, active at 5.0 μM or less
From the text: It has been shown previously that smoking marijuana reduces intraocular pressure in man [Helper and Frank, Marijuana Smoking and Intraocular Pressure., J. Am. Med. Assoc. 217, 1392 (1971)]. Topical application or systemic injection of delta-9 tetrahydrocannabinol, a principal active ingredient in marijuana, also reduces intraocular pressure [Purnell and Gregg, delta-9 Tetrahydrocannabinol, Euphoria and Intraocular Pressure in Man., Ann. Opth. 7, 921-923 (1975); Green and Pederson, Effect of delta-9 Tetrahydrocannabinol on Aqueous Dynamics and Ciliary Body Permeability in the Rabbit Eye., Exptl. Eye Research 15, 499-507 (1973); Colasanti, Craig and Allara, Intraocular Pressure, Ocular Toxicity and Neurotoxicity after Administration of Cannabinol or Cannibigerol, Exptl. Eye Research 39, 252-259 (1984)]. Similarly, synthetic cannabinoids also reduce intraocular pressure [Green, Symunds, Oliver and Elijah, Intraocular Pressure Following Systemic Administration of Cannabinoids., Curr. Eye Research 2, 247-253 (1982); Tiedeman, Shields, Weber, Crow, Coccetto, Harris and Howes, Opthalmology, 88, 270-277 (1981); Colasanti et al., supra]. Cannabinoid receptor binding sites can be defined as those to which radio-labelled 4-(1,1-dimethylheptyl)-2,3'-dihydroxy-6'alpha-(3-hydroxypropyl)-1', 2', 3', 4', 5', 6'-hexahydrobiphenyl (CP 55940) binds in a specific and saturable manner and the binding sites are heterogeneously distributed in the brain [Devane, Dysarz, Johnson, Melvin and Howlett, Determination and Characterization of a Cannabinoid Receptor in Rat Brain, Molecular Pharm. 34, 605-613 (1988)]. Natural and synthetic cannabinoids and certain of the compounds of the present invention, as more particularly described above, bind to CP 55940 binding sites. […] It is believed that agonist activity at the cannabinoid receptor mediates the anti-glaucoma actions of cannabinoids, and that agonist activity at this receptor correlates with ocular pressure lowering actions in man. Accordingly the cannabinoid receptor agonist activity of the compounds of the present invention indicate their usefulness in reducing ocular pressure.

[4] = test system: adjuvant induced arthritis; assay: developing adjuvant arthritis (AA) assay; assay type: in vivo; parameters: key: Non-statistically significant results are recorded as "------ "; settings: arthritic rats; printed * = p<0.01, ** = p<0.05
Method in brief: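 Rats given complete Freund's adjuvant into the right hindpaw on day 1. Drug treatment begins while disease is developing but not yet irreversible. Swelling of non-injected (NIP) and injected (RPV) paws read 15–20 days later, expressed as percent inhibition; active at p<0.05.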

paw pressure = assay: Randall-Selitto (RS) paw pressure test; assay type: in vivo; settings: oral administration; read-out: RS minimum effective dose, MED
From the text: as §1, §2

[5] = target: T1, Cannabinoid receptor (CP 55940 binding sites) (Rattus norvegicus, UniProt P20272); assay: CP 55940 binding assay
T1 construct: from tissue
T1 sequence (P20272 whole entry): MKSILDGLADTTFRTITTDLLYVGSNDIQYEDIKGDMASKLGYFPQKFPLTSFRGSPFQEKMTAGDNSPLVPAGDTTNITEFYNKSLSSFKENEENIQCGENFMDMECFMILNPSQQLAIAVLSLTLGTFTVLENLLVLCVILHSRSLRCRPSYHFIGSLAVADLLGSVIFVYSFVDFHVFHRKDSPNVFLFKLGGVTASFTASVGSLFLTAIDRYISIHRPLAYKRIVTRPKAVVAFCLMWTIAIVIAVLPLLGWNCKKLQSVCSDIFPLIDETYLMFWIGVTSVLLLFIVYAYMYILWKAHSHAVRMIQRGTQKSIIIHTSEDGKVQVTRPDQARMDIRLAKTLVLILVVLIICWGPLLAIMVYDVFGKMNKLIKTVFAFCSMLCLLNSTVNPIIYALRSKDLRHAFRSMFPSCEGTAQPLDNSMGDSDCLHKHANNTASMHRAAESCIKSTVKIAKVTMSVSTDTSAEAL

[6] = Table 9, Examples, no route marked in the cell, read-out: ACH ED50
[7] = iv, Table 9, iv, read-out: ACH ED50 (iv)
[8] = Table 9, Examples, no route marked in the cell

COc1ccc(C(=O)c2c(C)n(CC3CCCN3C)c3ccccc23)cc1 (racemic) [Example 2E]
ED50 [1, 6]: 27 mg/kg
ED50 [1, 7]: 6 mg/kg
BDK result (po) (bradykinin; po): IA
ED50 [2]: 6 mg/kg
IC50 ([3]; Mus musculus): 63 nM
NIP: percent inhibition of non-injected paw inflammation [4]: --
RPV: percent inhibition of injected paw [4]: 24%
minimal effective dose (paw pressure): 0.03 mg/kg

COc1ccc(C(=O)c2c(C)n(C3CCCN(C)C3)c3ccccc23)cc1.Cl (racemic) [Example 4A, 1-(1-methyl-3-piperidinyl)-2-methyl-3-(4-methoxybenzoyl)-1H-indole hydrochloride]
ED50 [1, 6]: 33 mg/kg
RW percent inhibition at dose 17 ([2]; oral, dose level 17): 57%
IC50 ([3]; Mus musculus): 650 nM
NIP: percent inhibition of non-injected paw inflammation [4]: 50%
RPV: percent inhibition of injected paw [4]: 26%

COc1ccc(C(=O)c2c(C)n(C[C@@H]3CC[C@@H](C)N3C)c3ccccc23)cc1 (relative stereo) [Example 1Y]
ED50 [1, 6]: 21 mg/kg
ED50 [1, 7]: 2 mg/kg
ED50 ([1]; sc, Table 9, sc, read-out: ACH ED50 (sc)): 10 mg/kg
ED50 [2]: 3 mg/kg
IC50 ([3]; Mus musculus): 52 nM
NIP: percent inhibition of non-injected paw inflammation [4]: 67%
RPV: percent inhibition of injected paw [4]: 48%

COc1ccc(C(=O)c2cn(C(C)C3CCCN3C)c3ccccc23)cc1 (stereo not shown) [Example 1AB]
ACH ED50 [1, 8]: 19 mg/kg
RW ED50 [2]: 10 mg/kg
IC50 [3]: 560 nM

Cc1c(C(=O)c2cccc3ccccc23)c2ccccc2n1CC1CCCN(C)C1 (stereo not shown) [Example 1M]
ED50 [1, 7]: 7 mg/kg
inhibition in vivo at 100 mg/kg ([1]; Table 9): 25%
IC50 ([3]; Mus musculus): 91 nM
minimal effective dose (paw pressure): 0.1 mg/kg

COc1ccc(C(=O)c2cn(CC3CCCN(C)C3)c3ccccc23)cc1 (stereo not shown) [Example 1N]
ED50 [1, 6]: 91 mg/kg
RW ED50 [2]: 28.3 mg/kg
IC50 ([3]; Mus musculus): 94 nM

CSc1ccc(C(=O)c2c(C)n(CC3CCCN3C)c3ccccc23)cc1 (stereo not shown) [Example 1V]
ED50 [1, 6]: 25 mg/kg
ED50 [2]: 7 mg/kg
IC50 ([3]; Mus musculus): 130 nM

COc1ccc(C(=O)c2c(C)n(C3CCN(C)C3)c3ccccc23)cc1 (stereo not shown) [Example 1X]
ED50 [1, 6]: 20 mg/kg
ED50 [2]: 12 mg/kg
IC50 ([3]; Mus musculus): 150 nM
NIP: percent inhibition of non-injected paw inflammation [4]: --
RPV: percent inhibition of injected paw [4]: 23%

COc1ccc(C(=O)c2c(C)n(CC3CCN(C)CC3)c3ccccc23)cc1 [Example 2AH]
ED50 [1, 6]: 4 mg/kg
ACH ED50 [1, 8]: 5 mg/kg
BDK percent inhibition at dose 3 (bradykinin; oral, dose level 3): 30%
RW percent inhibition at dose 30 ([2]; oral): 74%

CCc1ccc(C(=O)c2c(C)n(CC3CCCN3C)c3ccccc23)cc1 (stereo not shown) [Example 2AK]
ED50 [1, 6]: 40 mg/kg
ED50 [2]: 7 mg/kg
IC50 ([3]; Mus musculus): 25 nM

COc1ccc(C(=O)c2c(C)n(CCC3CCCN3C)c3ccccc23)cc1 (stereo not shown) [Example 2B]
ED50 [1, 6]: 32 mg/kg
ED50 [1, 7]: 8 mg/kg
ACH ED50 ([1]; Table 9, Examples, no route marked in the cell, listed as 2B(HCl)): 23 mg/kg
ED50 [2]: 25 mg/kg
minimal effective dose (paw pressure): 10 mg/kg

COc1ccc(C(=O)c2c(C)n(CC3CCCN(C)C3)c3ccccc23)cc1 (stereo not shown) [Example 2D]
ED50 [1, 6]: 8 mg/kg
ED50 (bradykinin; oral administration): 2.4 mg/kg
ED50 [2]: 2 mg/kg
NIP: percent inhibition of non-injected paw inflammation [4]: 99%
RPV: percent inhibition of injected paw [4]: 78%

COc1ccc(C(=O)c2cn(CCC3CCCCN3C)c3ccccc23)cc1 (stereo not shown) [Example 2F]
ED50 [1, 6]: 45 mg/kg
ED50 [1, 7]: 4 mg/kg
minimal effective dose (paw pressure): 3 mg/kg

COc1ccc(C(=O)c2c(C)n(CC3CCCCN3C)c3ccccc23)cc1 (stereo not shown) [Example 2H]
ED50 [1, 6]: 33 mg/kg
ED50 [2]: 22 mg/kg
IC50 ([3]; Mus musculus): 134 nM
NIP: percent inhibition of non-injected paw inflammation [4]: 69%
RPV: percent inhibition of injected paw [4]: 51%

COc1ccc(C(=O)c2cn(CC3CCCCN3C)c3ccccc23)cc1 (stereo not shown) [Example 2J]
ED50 [1, 6]: 6 mg/kg
ACH remark (Depr. = depressant) ([1]; Table 9): Depr.
ED50 [2]: 0.5 mg/kg
IC50 ([3]; Mus musculus): 3 nM
NIP: percent inhibition of non-injected paw inflammation [4]: 66%
RPV: percent inhibition of injected paw [4]: 27%

CN1CCCCC1Cn1cc(C(=O)c2cccc3ccccc23)c2ccccc21 (stereo not shown) [Example 2P]
IC50 [5]: 1.4 nM
ED50 [1, 6]: 9 mg/kg
ED50 [1, 7]: 0.03 mg/kg
ACH ED50 (iv) ([1]; Table 9, iv): 0.05 mg/kg
ACH remark (Depr. = depressant) ([1]; Table 9): Depr.
RW percent inhibition at dose 30 ([2]; oral): 98%
IC50 ([3]; Mus musculus): 0.22 nM

Cc1c(C(=O)c2cccc3ccccc23)c2ccccc2n1CC1CCCCN1C (stereo not shown) [Example 2R]
ED50 [1, 6]: 22 mg/kg
RW percent inhibition at dose 30 ([2]; oral): 100%
IC50 ([3]; Mus musculus): 1 nM
NIP: percent inhibition of non-injected paw inflammation [4]: 57%
RPV: percent inhibition of injected paw [4]: 29%

CN1CCCCC1CCn1cc(C(=O)c2cccc3ccccc23)c2ccccc21 (stereo not shown) [Example 2U]
inhibition in vivo at 100 mg/kg ([1]; Table 9): 30%
RW percent inhibition at dose 30 ([2]; oral): 50%
IC50 ([3]; Mus musculus): 107 nM

COc1ccc(C(=O)c2cn(CC3CCCN3C)c3ccccc23)cc1 (stereo not shown) [Example 2W]
ED50 [1, 6]: 11 mg/kg
ACH remark (Depr. = depressant) ([1]; Table 9): Depr.
ED50 [2]: 3 mg/kg
IC50 ([3]; Mus musculus): 8 nM
